The values that follow come from paper PMC5469208 (Molecular microbiology, 2016).

In brackets after ≈: the same amount, converted by molar mass. Entries after “also recorded” stand apart in the source; their conditions may differ. Like-named read-outs stand apart in the source and are kept apart here.

Data set [1] relates to M. bovis BCG Pasteur. The experiment in a line: microbe, parasite or virus in culture. It counts as cell-based, Mycobacterium bovis BCG.
Data set [2] has as its system M. tuberculosis H37Rv. Description: MIC determination by broth microdilution, M. tuberculosis. The settings on record: Mycobacterium tuberculosis. It counts as cell-based. On the technique in general: Broth dilution looks for growth in wells or tubes with falling amounts of substance.
In data set [3] the test system is B. subtilis 168. Description: MIC determination by broth microdilution, B. subtilis 168 wt. It counts as cell-based. To be noted: Bacillus subtilis, 168, B. subtilis 168 wt, LB medium.
In data set [4] the test system is M. bovis BCG clpP1-tetoff. Description: microbe, parasite or virus in culture. It counts as cell-based, Mycobacterium bovis BCG.
For data set [5], the system named is B. subtilis 168-pX2-clpP. Description: MIC determination, conditional strain B. subtilis 168-pX2-clpP. It counts as cell-based. The settings on record: Bacillus subtilis, 168PX2CLPP, LB medium.
Data set [6] has as its system B. subtilis 168ΔclpP. Description: microbe, parasite or virus in culture. In kind it is cell-based. To be noted: Bacillus subtilis, LB medium.
In data set [7] the target is MTB ClpP1P2 (Mycobacterium tuberculosis, UniProt P9WPC3+P9WPC5). Description: Z-GGL-amc peptidase activity of Z-LL pre-activated ClpP1P2. In kind it is biochemical, M. tuberculosis. The settings on record: 5 mM Z-LL, without ADEP.
Data set [8] addresses T1, BS ClpP (Bacillus subtilis, UniProt P80244). The experiment in a line: suc-LY-amc hydrolysis competition assay with BS ClpP. The settings on record: 3 μM BS ClpP, 30 μM suc-LY-amc, 0–60 μM ADEP2, 0, 500 or 2500 μM Z-LL, pH 8. It counts as biochemical, B. subtilis.
Data set [9] addresses T1, BS ClpP. Description: Z-LL stability in the presence of BS ClpP, HPLC. Further details: species or system B. subtilis. The settings on record: 1 mM Z-LL, 3 μM BS ClpP, 3 h, 37 °C, activity buffer, Fig. S3.
For data set [10], the system named is ClpC1. The settings on record: ref Gavrish et al., 2014 (lassomycin); Gao et al., 2014 (ecumicin); cited from earlier work.
For data set [11], the system named is M. bovis BCG clpP1-tetoff. It counts as cell-based, Mycobacterium bovis BCG.
Data set [12] concerns M. bovis wildtype (wt). It counts as cell-based, Mycobacterium bovis BCG.
Data set [13] concerns ClpP2. In kind it is cell-based, M. bovis BCG.
Data set [14] relates to S. aureus. The settings on record: ref Conlon et al., 2013; cited from earlier work.
Data set [15] relates to ClpC1. The settings on record: binding to the ATPase ClpC1; ref Schmitt et al., 2011; cited from earlier work.
Data set [16] concerns M. smegmatis mc^2155. The experiment in a line: MIC determination by broth microdilution, M. smegmatis. In kind it is cell-based, Mycobacterium smegmatis. The settings on record: Mycolicibacterium smegmatis, MC^2155, 48 h.
Where [17] appears, read: M. bovis BCG wt, 25 ng ml^−1 ATc.
The mark [18] stands for this setting: M. bovis BCG wt, no ATc (Table 2).
Setting [19] is: Mycobacterium tuberculosis variant bovis BCG, BCG.

T1 sequence (P80244 whole entry): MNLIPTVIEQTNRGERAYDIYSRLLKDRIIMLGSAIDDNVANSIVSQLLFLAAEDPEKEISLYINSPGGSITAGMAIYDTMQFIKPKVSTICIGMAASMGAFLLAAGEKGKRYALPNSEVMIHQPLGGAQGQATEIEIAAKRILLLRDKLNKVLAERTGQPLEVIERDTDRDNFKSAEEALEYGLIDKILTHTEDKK

As to `CN[C@@H]1[C@@H](O[C@H]2O[C@H](CO)[C@@H](N)[C@H](O)[C@H]2O)OC2C[C@@H](N)[C@@H](O[C@H]3[C@H](O)[C@@H](O)[C@H](N)C[C@@H]3N)OC2[C@@H]1O` (some centres unmarked) [apramycin], the MIC in [1] (setting [17]) is 1 µg/mL (≈ 1.85 µM); in data set [1] (setting [18]), 1 µg/mL (≈ 1.85 µM); in data set [1] (setting [19]), 1 µg/mL (≈ 1.85 µM); in data set [2] it was 1 µg/mL (≈ 1.85 µM); in data set [3] (10% xylose), 2 µg/mL (≈ 3.71 µM); in data set [3] (no xylose) it was 4 µg/mL (≈ 7.41 µM). In addition, the MIC was determined as 1 µg/mL (≈ 1.85 µM) in data set [5] (1% xylose); 2 µg/mL (≈ 3.71 µM) in data set [5] (2% xylose); 2 µg/mL (≈ 3.71 µM) in data set [5] (3% xylose); 4 µg/mL (≈ 7.41 µM) in [5] (4% xylose); 2 µg/mL (≈ 3.71 µM) in data set [5] (5% xylose); 4 µg/mL (≈ 7.41 µM) in data set [5] (8% xylose). In addition, the MIC in data set [5] (10% xylose) amounted to 4 µg/mL (≈ 7.41 µM); in data set [5] (no xylose), 2 µg/mL (≈ 3.71 µM); in [6] (10% xylose), 1 µg/mL (≈ 1.85 µM); in data set [6] (no xylose), 2 µg/mL (≈ 3.71 µM). Besides, in [4], the “effect of ATc (clpP1P2 down-regulation) on sensitivity to the antibiotic” value is “did not occur”.
As to benzyloxycarbonyl-leucyl-leucine [Z-LL], the “peptidase activity of ClpP1P2 activated by Z-LL alone” value in data set [7] is “able to degrade the fluorogenic peptide substrate Z-GGL-amc”. Further, the “mode of inhibition of Z-LL versus ADEP2” value in data set [8] was “non-competitive with ADEP”. Further, in data set [9], the “amount of Z-LL after incubation with BS ClpP” value was “not reduced after 3 hours incubation”.
Turning to lassomycin, the “ATP-hydrolysis by ClpC1, uncoupling from protein degradation by ClpP1P2” value in data set [10] is given as “stimulate ATP-hydrolysis by ClpC1, while uncoupling it from protein degradation by ClpP1P2”.
For the molecule `Cc1c2c(c(O)c3c(O)cccc13)C(=O)[C@]1(O)C(=O)C(C(N)=O)=C(O)[C@@H](N(C)C)[C@@H]1C2` [ATc, anhydrotetracycline], the “growth of clpP1-tetoff strain” value in data set [11] is “slowed down the growth rate; also recorded: the cells were dying”. The “growth of M. bovis wildtype” value in data set [12] (2 ng ml^−1 ATc) was “not affected”; in data set [12] (25 ng ml^−1 ATc, MIC growth controls), “did not impede growth of the wildtype strain”. In addition, the “ClpP2 / ClpP1P2 protein level” value in data set [13] is reported as “considerably reduced level”.
In the case of ecumicin, the “ATP-hydrolysis by ClpC1, uncoupling from protein degradation by ClpP1P2” value in data set [10] is given as “stimulate ATP-hydrolysis by ClpC1, while uncoupling it from protein degradation by ClpP1P2”.
For the molecule `CO[C@H]1/C=C/O[C@@]2(C)Oc3c(C)c(O)c4c(O)c(c(/C=N/N5CCN(C)CC5)c(O)c4c3C2=O)NC(=O)/C(C)=C\C=C\[C@H](C)[C@H](O)[C@@H](C)[C@@H](O)[C@@H](C)[C@H](OC(C)=O)[C@@H]1C` [Rifampicin], the “synergy with ADEP against S. aureus” value in [14] is given as “act synergistically with ADEP against S. aureus”.
With Cyclomarin, in [15], the “hydrolysis of a model protein in M. smegmatis” value is reported as “increased hydrolysis of a model protein”.
As to `NNC(=O)c1ccncc1` [isoniazid], the MIC in data set [16] came to 4 µg/mL (≈ 29.2 µM); in data set [1] (M. bovis BCG Pasteur, 7H9 medium) it was 0.06 µg/mL (≈ 0.438 µM); in data set [1] (setting [17]), 0.06 µg/mL (≈ 0.438 µM); in data set [1] (setting [18]) it was 0.06 µg/mL (≈ 0.438 µM); in [1] (setting [19]) it was 0.06 µg/mL (≈ 0.438 µM); in data set [4] (setting [19]), 0.03 µg/mL (≈ 0.219 µM). In addition, the “effect of ATc (clpP1P2 down-regulation) on sensitivity to the antibiotic” value in [4] is listed as “did not occur”.
